Measurements reported in patent US10519134B2, “Pyrazole compounds and methods of making and using same” (Lundbeck La Jolla Research Center, Inc., priority 2015, dated 2019).

Columns and labels:
Type in all cases: biochemical
MAGL [1] = target: T1, MAGL (Homo sapiens, UniProt Q99685); assay: In vitro competitive activity-based protein profiling (human), MAGL gel band
T1 construct: Proteomes (human prefrontal cortex or cell membrane fractions); from tissue; host or cells: human prefrontal cortex (or cell membrane fractions)
T1 sequence (Q99685 1-303): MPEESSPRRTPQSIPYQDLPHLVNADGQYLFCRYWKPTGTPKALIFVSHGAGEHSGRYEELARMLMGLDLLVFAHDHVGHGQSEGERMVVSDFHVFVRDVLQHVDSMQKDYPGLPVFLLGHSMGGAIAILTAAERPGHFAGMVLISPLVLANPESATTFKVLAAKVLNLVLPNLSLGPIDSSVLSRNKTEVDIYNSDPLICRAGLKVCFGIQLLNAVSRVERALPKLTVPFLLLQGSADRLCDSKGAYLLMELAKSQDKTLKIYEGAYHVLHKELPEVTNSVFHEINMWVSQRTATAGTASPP
Method: In Vitro Competitive Activity-Based Protein Profiling (Human).
Proteomes (human prefrontal cortex or cell membrane fractions) (50 μL, 1.0-2.0 mg/mL total protein concentration) were preincubated with varying concentrations of inhibitors at 37° C. After 30 min, FP-Rh or JW912 (1.0 μL, 50 μM in DMSO) was added and the mixture was incubated for another 30 min at room temperature. Reactions were quenched with SDS loading buffer (15 μL—4×) and run on SDS-PAGE. Following gel imaging, serine hydrolase activity was determined by measuring fluorescent intensity of gel bands corresponding to MAGL using ImageJ 1.49k software.

MAGL [2] = target: T2, MAGL (Mus musculus, UniProt O35678); assay: In vitro competitive activity-based protein profiling (mouse), MAGL gel band; details: for inhibition at 1 µM: read-out: MAGL % inh. 1 μM
T2 construct: Proteomes (mouse brain membrane fraction or cell lysates); from tissue; host or cells: mouse brain membrane fraction (or cell lysates)
T2 sequence (O35678 1-303): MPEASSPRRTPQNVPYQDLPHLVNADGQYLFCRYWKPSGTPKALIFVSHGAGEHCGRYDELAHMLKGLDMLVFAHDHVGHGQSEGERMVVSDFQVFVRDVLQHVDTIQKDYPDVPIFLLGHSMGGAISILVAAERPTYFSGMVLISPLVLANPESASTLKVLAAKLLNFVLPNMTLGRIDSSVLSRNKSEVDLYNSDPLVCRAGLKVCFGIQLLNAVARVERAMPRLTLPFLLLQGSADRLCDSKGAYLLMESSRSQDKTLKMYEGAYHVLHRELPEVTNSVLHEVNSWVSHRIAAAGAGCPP
Summary of the method: (§1)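 Mouse brain membrane proteome or cell lysate (1.0 mg/mL total protein) was preincubated with varying inhibitor concentrations for 30 min at 37 °C, then labelled for 30 min at 37 °C with FP-Rh or HT-01 (50 μM stock in DMSO). Activity was read as fluorescent band intensity after SDS-PAGE.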

FAAH = target: T3, FAAH (Mus musculus, UniProt O08914); assay: In vitro competitive activity-based protein profiling (mouse), FAAH gel band; details: for inhibition at 1 µM: read-out: FAAH % inh. 1 μM
T3 construct: Proteomes (mouse brain membrane fraction or cell lysates); from tissue; host or cells: mouse brain membrane fraction (or cell lysates)
T3 sequence (O08914 1-579): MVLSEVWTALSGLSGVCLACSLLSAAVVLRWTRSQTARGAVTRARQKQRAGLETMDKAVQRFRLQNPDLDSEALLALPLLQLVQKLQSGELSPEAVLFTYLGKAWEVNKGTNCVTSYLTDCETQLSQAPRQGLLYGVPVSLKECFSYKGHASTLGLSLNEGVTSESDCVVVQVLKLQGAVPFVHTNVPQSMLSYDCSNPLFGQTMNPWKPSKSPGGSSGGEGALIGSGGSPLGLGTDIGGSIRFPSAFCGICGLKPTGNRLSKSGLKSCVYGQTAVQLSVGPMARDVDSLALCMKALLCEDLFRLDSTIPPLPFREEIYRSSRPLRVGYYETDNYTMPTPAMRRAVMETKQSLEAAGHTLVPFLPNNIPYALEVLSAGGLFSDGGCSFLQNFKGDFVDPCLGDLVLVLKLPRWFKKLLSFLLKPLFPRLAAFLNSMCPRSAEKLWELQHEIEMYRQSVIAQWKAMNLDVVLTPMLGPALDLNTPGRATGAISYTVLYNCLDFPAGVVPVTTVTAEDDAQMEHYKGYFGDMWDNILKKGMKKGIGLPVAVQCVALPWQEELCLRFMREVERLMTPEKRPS
Summary of the method: as §1

SMILES: CS(=O)(=O)Nc1ccn(C(=O)N2CCN(Cc3ccc(C(F)(F)F)c(N4CCC(O)CC4)c3)CC2)n1 [Example 289, N-(1-(4-(3-(4-hydroxypiperidin-1-yl)-4-(trifluoromethyl)benzyl)piperazine-1-carbonyl)-1H-pyrazol-3-yl) methanesulfonamide]
- IC50 (MAGL [1]): ≤ 0.1 µM
- inhibition at 1 µM (MAGL [2]): ≥ 75%
- inhibition at 1 µM (FAAH): 0 to 25%

SMILES: CS(=O)(=O)Nc1ccn(C(=O)N2CCN(Cc3ccc(C(F)(F)F)cc3N3CCN(S(C)(=O)=O)CC3)CC2)n1 [Example 173]
- IC50 (MAGL [1]): ≤ 0.1 µM
- inhibition at 1 µM (MAGL [2]): ≥ 75%
- inhibition at 1 µM (FAAH): 0 to 25%

SMILES: CC(=O)Nc1ccn(C(=O)N2CCN(Cc3ccc(C(F)(F)F)cc3N3CCN4CCC[C@@H]4C3)CC2)n1 [Example 268, (R)-N-(1-(4-(2-(hexahydropyrrolo[1,2-a]pyrazin-2(1H)-yl)-4-(trifluoromethyl)benzyl)piperazine-1-carbonyl)-1H-pyrazol-3-yl)acetamide]
- IC50 (MAGL [1]): ≤ 0.1 µM
- IC50 (MAGL [2]; mouse): ≤ 0.1 µM
- inhibition at 1 µM (MAGL [2]): ≥ 75%
- IC50 (FAAH; mouse): 1 to 10 µM
- inhibition at 1 µM (FAAH): 0 to 25%

SMILES: CS(=O)(=O)Nc1ccn(C(=O)N2CCN(Cc3ccc(Cl)c(N4CC[C@H](O)C4)c3)CC2)n1 [Example 292, (S)-N-(1-(4-(4-chloro-3-(3-hydroxypyrrolidin-1-yl)benzyl)piperazine-1-carbonyl)-1H-pyrazol-3-yl) methanesulfonamide]
- IC50 (MAGL [1]): ≤ 0.1 µM
- inhibition at 1 µM (MAGL [2]): ≥ 75%
- inhibition at 1 µM (FAAH): 0 to 25%

SMILES: CS(=O)(=O)Nc1ccn(C(=O)N2CCN(Cc3ccc(C(F)(F)F)c(N4CCC(F)CC4)c3)CC2)n1 [Example 271, N-(1-(4-(3-(4-fluoropiperidin-1-yl)-4-(trifluoromethyl)benzyl)piperazine-1-carbonyl)-1H-pyrazol-3-yl) methanesulfonamide]
- IC50 (MAGL [1]): ≤ 0.1 µM
- inhibition at 1 µM (MAGL [2]): ≥ 75%
- inhibition at 1 µM (FAAH): 0 to 25%

SMILES: CC1CCCN1c1cc(CN2CCN(C(=O)n3ccc(NS(C)(=O)=O)n3)CC2)cc(C(F)(F)F)c1 (centres unmarked) [Example 191, N-(1-(4-(3-(2-methylpyrrolidin-1-yl)-5-(trifluoromethyl)benzyl)piperazine-1-carbonyl)-1H-pyrazol-3-yl) methanesulfonamide]
- IC50 (MAGL [1]): ≤ 0.1 µM
- inhibition at 1 µM (MAGL [2]): ≥ 75%
- inhibition at 1 µM (FAAH): 0 to 25%

SMILES: CS(=O)(=O)Nc1ccn(C(=O)N2CCN(Cc3ccc(N4CCOCC4)c(C(F)(F)F)c3)CC2)n1 [Example 167, N-[1-[(4-[[4-(morpholin-4-yl)-3-(trifluoromethyl)phenyl]methyl]piperazin-1-yl)carbonyl]-1H-pyrazol-3-yl] methanesulfonamide]
- IC50 (MAGL [1]): ≤ 0.1 µM
- inhibition at 1 µM (MAGL [2]): ≥ 75%
- inhibition at 1 µM (FAAH): 0 to 25%

SMILES: CS(=O)(=O)Nc1ccn(C(=O)N2CCC3(CCCN3Cc3ccc(C(F)(F)F)cc3Cl)CC2)n1 [Example 197, N-(1-(1-(2-chloro-4-(trifluoromethyl)benzyl)-1,8-diazaspiro[4.5]decane-8-carbonyl)-1H-pyrazol-3-yl) methanesulfonamide]
- IC50 (MAGL [1]): ≤ 0.1 µM
- inhibition at 1 µM (MAGL [2]): ≥ 75%
- inhibition at 1 µM (FAAH): 0 to 25%

SMILES: CC(=O)Nc1ccn(C(=O)N2CCN(Cc3ccc(C(F)(F)F)cc3C3CCN(CC(=O)O)CC3)CC2)n1 [Example 285, 2-(4-(2-((4-(3-acetamido-1H-pyrazole-1-carbonyl)piperazin-1-yl)methyl)-5-(trifluoromethyl)phenyl)piperidin-1-yl)acetic acid]
- IC50 (MAGL [1]): ≤ 0.1 µM
- inhibition at 1 µM (MAGL [2]): ≥ 75%
- inhibition at 1 µM (FAAH): 0 to 25%

SMILES: CC(=O)N1CCC2(CC1)CCN(c1cc(CN3CCN(C(=O)n4ccc(NS(C)(=O)=O)n4)CC3)ccc1Cl)C2 [Example 216, N-(1-(4-(3-(8-acetyl-2,8-diazaspiro[4.5]decan-2-yl)-4-chlorobenzyl)piperazine-1-carbonyl)-1H-pyrazol-3-yl) methanesulfonamide]
- IC50 (MAGL [1]): 0.1 to 1 µM
- inhibition at 1 µM (MAGL [2]): ≥ 75%
- inhibition at 1 µM (FAAH): 0 to 25%

SMILES: CS(=O)(=O)Nc1ccn(C(=O)N2CCN(Cc3ccc(C(F)(F)F)cc3-c3nccs3)CC2)n1 [Example 211, N-(1-(4-(2-(thiazol-2-yl)-4-(trifluoromethyl)benzyl)piperazine-1-carbonyl)-1H-pyrazol-3-yl) methanesulfonamide]
- IC50 (MAGL [1]): ≤ 0.1 µM
- inhibition at 1 µM (MAGL [2]): ≥ 75%
- inhibition at 1 µM (FAAH): 0 to 25%

SMILES: CS(=O)(=O)Nc1ccn(C(=O)N2CCC3(CCCN3Cc3ccc(N4CCCC4)c(C(F)(F)F)c3)CC2)n1 [Example 159, N-(1-(1-(4-(pyrrolidin-1-yl)-3-(trifluoromethyl)benzyl)-1,8-diazaspiro[4.5]decane-8-carbonyl)-1H-pyrazol-3-yl) methanesulfonamide]
- IC50 (MAGL [1]): 0.1 to 1 µM
- inhibition at 1 µM (MAGL [2]): ≥ 75%
- inhibition at 1 µM (FAAH): 0 to 25%

SMILES: CS(=O)(=O)Nc1ccn(C(=O)N2CCN(Cc3ccc(C(F)(F)F)cc3N3CCC(C(N)=O)CC3)CC2)n1 [Example 250, 1-(2-((4-(3-(methylsulfonamido)-1H-pyrazole-1-carbonyl)piperazin-1-yl)methyl)-5-(trifluoromethyl)phenyl)piperidine-4-carboxamide]
- IC50 (MAGL [1]): ≤ 0.1 µM
- inhibition at 1 µM (MAGL [2]): ≥ 75%
- inhibition at 1 µM (FAAH): 0 to 25%

SMILES: CS(=O)(=O)Nc1ccn(C(=O)N2CCN(Cc3ccc(C(F)(F)F)cc3C3CCN(CC(=O)O)CC3)CC2)n1 [Example 118, 2-(4-(2-((4-(3-(methylsulfonamido)-1H-pyrazole-1-carbonyl)piperazin-1-yl)methyl)-5-(trifluoromethyl)phenyl)piperidin-1-yl)acetic Acid]
- inhibition at 1 µM (MAGL [1]; at 1 μM, read-out: MAGL human % inh at 1 μM): 25%
- inhibition at 1 µM (MAGL [2]): 0 to 25%
- inhibition at 1 µM (FAAH): 0 to 25%

SMILES: CS(=O)(=O)Nc1ccn(C(=O)N2CCN(Cc3ccc(C(F)(F)F)cc3N3CCC(C(=O)O)C3)CC2)n1 (centres unmarked) [Example 190, 1-(2-((4-(3-(methylsulfonamido)-1H-pyrazole-1-carbonyl)piperazin-1-yl)methyl)-5-(trifluoromethyl)phenyl) pyrrolidine-3-carboxylic acid]
- IC50 (MAGL [1]): ≤ 0.1 µM
- inhibition at 1 µM (MAGL [2]): ≥ 75%
- inhibition at 1 µM (FAAH): 0 to 25%

SMILES: CS(=O)(=O)Nc1ccn(C(=O)N2CCN(Cc3cc(N4CCC4)cc(C(F)(F)F)c3)CC2)n1 [Example 192, N-(1-(4-(3-(azetidin-1-yl)-5-(trifluoromethyl)benzyl)piperazine-1-carbonyl)-1H-pyrazol-3-yl) methanesulfonamide]
- IC50 (MAGL [1]): ≤ 0.1 µM
- inhibition at 1 µM (MAGL [2]): ≥ 75%
- inhibition at 1 µM (FAAH): 0 to 25%

SMILES: CS(=O)(=O)Nc1ccn(C(=O)N2CCN(Cc3ccc(C(F)(F)F)cc3N3CCC(F)CC3)CC2)n1 [Example 196, N-(1-(4-(2-(4-fluoropiperidin-1-yl)-4-(trifluoromethyl)benzyl)piperazine-1-carbonyl)-1H-pyrazol-3-yl) methanesulfonamide]
- IC50 (MAGL [1]): ≤ 0.1 µM
- inhibition at 1 µM (MAGL [2]): ≥ 75%
- inhibition at 1 µM (FAAH): 0 to 25%

SMILES: CS(=O)(=O)Nc1ccn(C(=O)N2CCN(Cc3ccc(C(F)(F)F)cc3N3C4CCC3CN(S(C)(=O)=O)C4)CC2)n1 [Example 208, N-(1-(4-(2-(3-(methylsulfonyl)-3,8-diazabicyclo[3.2.1]octan-8-yl)-4-(trifluoromethyl)benzyl)piperazine-1-carbonyl)-1H-pyrazol-3-yl) methanesulfonamide]
- IC50 (MAGL [1]): ≤ 0.1 µM
- inhibition at 1 µM (MAGL [2]): ≥ 75%
- inhibition at 1 µM (FAAH): 0 to 25%

SMILES: CS(=O)(=O)Nc1ccn(C(=O)N2CCN(Cc3ccc(Cl)cc3N3CCC4(CC3)CN(S(C)(=O)=O)C4)CC2)n1 [Example 230, N-(1-(4-(4-chloro-2-(2-(methylsulfonyl)-2,7-diazaspiro[3.5]nonan-7-yl)benzyl)piperazine-1-carbonyl)-1H pyrazol-3-yl) methanesulfonamide]
- IC50 (MAGL [1]): ≤ 0.1 µM
- inhibition at 1 µM (MAGL [2]): ≥ 75%
- inhibition at 1 µM (FAAH): 0 to 25%
